Test results as given in US9511073B2, “Aromatic amides and uses thereof” (TAXIS Pharmaceuticals, Inc., priority 2011, dated 2016).
Values after ≈ are worked out from the molar mass of the structure shown.

System: Staphylococcus aureus (Isolate ID ATCC 29213)
Assay: Bacterial assay: MIC by broth microdilution or agar dilution (CLSI), S. aureus ATCC 29213
Assay type: cell-based
Settings: Staphylococcus aureus, ATCC29213, read-out: S. aureus MIC (μg/mL) Activity Range, S. aureus (ATCC29213)
Procedure, shortened: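 MICs by CLSI broth microdilution or agar dilution against S. aureus ATCC 29213 and its FtsZ-G196A mutant. Values reported as ranges: A ≤0.25 μg/mL, B >0.25–1.0, C >1.0–16, D >16 μg/mL.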

| SMILES | MIC [µg/mL] |
| --- | --- |
| Cc1ccc(CNC(=O)OCC(Oc2ccc(F)c(C(N)=O)c2F)c2nc(-c3ccc(C(F)(F)F)cc3)c(Br)o2)n1C (stereo not shown) [Compound 211, 2-(5-bromo-4-(4-(trifluoromethyl)phenyl)oxazol-2-yl)-2-(3-carbamoyl-2,4-difluorophenoxy)ethyl ((1,5-dimethyl-1H-pyrrol-2-yl)methyl)carbamate] | 0.25 to 1 (≈ 0.38 to 1.52 µM) |
| NC(=O)c1c(F)ccc(OC(CO)c2nc(-c3ccc(Cl)cc3)c(Br)o2)c1F (stereo not shown) [Compound 39, 3-(1-(5-bromo-4-(4-chlorophenyl)oxazol-2-yl)-2-hydroxyethoxy)-2,6-difluorobenzamide] | < 0.25 |
| NC(=O)c1c(F)ccc(OC(CNC(=O)c2cccnc2)c2nc(-c3ccc(C(F)(F)F)cc3)co2)c1F (stereo not shown) [Compound 293, N-(2-(3-carbamoyl-2,4-difluorophenoxy)-2-(4-(4-(trifluoromethyl)phenyl)oxazol-2-yl)ethyl)nicotinamide] | > 16 |
| C=CCc1oc(C(COC(C)=O)Oc2ccc(F)c(C(N)=O)c2F)nc1-c1ccc(C(F)(F)F)cc1 (stereo not shown) [Compound 63, 2-(5-allyl-4-(4-(trifluoromethyl)phenyl)oxazol-2-yl)-2-(3-carbamoyl-2,4-difluorophenoxy)ethyl acetate] | 1 to 16 |
| CCCc1oc(C(C)Oc2ccc(F)c(C(N)=O)c2F)nc1-c1ccc(Cl)cc1 (stereo not shown) [Compound 19] | 0.25 to 1 (≈ 0.594 to 2.38 µM) |
| Cc1cc(Cl)ccc1-c1nc(C(CO)Oc2ccc(F)c(C(N)=O)c2F)oc1Br (stereo not shown) [Compound 239, 3-(1-(5-bromo-4-(4-chloro-2-methylphenyl)oxazol-2-yl)-2-hydroxyethoxy)-2,6-difluorobenzamide] | < 0.25 |
| CCCc1oc(C(C)Oc2ccc(F)c(C(N)=O)c2F)nc1-c1ccccc1 (stereo not shown) [Compound 8] | 1 to 16 (≈ 2.59 to 41.4 µM) |
| CC(Oc1ccc(F)c(C(N)=O)c1F)c1nc(Br)c(Cl)s1 (stereo not shown) [Compound 24] | 1 to 16 (≈ 2.51 to 40.2 µM) |
| NC(=O)c1c(F)ccc(OC(CO)c2nc(-c3ccc(Cl)c(F)c3)c(Br)o2)c1F (stereo not shown) [Compound 225, 3-(1-(5-bromo-4-(4-chloro-3-fluorophenyl)oxazol-2-yl)-2-hydroxyethoxy)-2,6-difluorobenzamide] | 0.25 to 1 (≈ 0.508 to 2.03 µM) |
| NC(=O)c1c(F)ccc(OC(CO)c2nc(C3CCOCC3)c(Br)o2)c1F (stereo not shown) [Compound 187, 3-(1-(5-bromo-4-(tetrahydro-2H-pyran-4-yl)oxazol-2-yl)-2-hydroxyethoxy)-2,6-difluorobenzamide] | > 16 |
| NC(=O)c1c(F)ccc(OC(COC2CCCCO2)c2nc(-c3ccc(C(F)(F)F)cc3)c(Br)o2)c1F (stereo not shown) [Compound 105, 3-(1-(5-bromo-4-(4-(trifluoromethyl)phenyl)oxazol-2-yl)-2-((tetrahydro-2H-pyran-2-yl)oxy)ethoxy)-2,6-difluorobenzamide] | 0.25 to 1 (≈ 0.423 to 1.69 µM) |
| Cc1noc(C(Oc2ccc(F)c(C(N)=O)c2F)c2nc(-c3ccc(C(F)(F)F)cc3)co2)n1 (stereo not shown) [Compound 188, 2,6-difluoro-3-((3-methyl-1,2,4-oxadiazol-5-yl)(4-(4-(trifluoromethyl)phenyl)oxazol-2-yl)methoxy)benzamide] | > 16 |
| NC(=O)c1c(F)ccc(OC(C(=O)O)c2nc(-c3ccc(Cl)cc3)co2)c1F (stereo not shown) [Compound 12, 2-(3-carbamoyl-2,4-difluorophenoxy)-2-(4-(4-chlorophenyl)oxazol-2-yl)acetic acid] | > 16 |
| CN(C)CCNC(=O)OCC(Oc1ccc(F)c(C(N)=O)c1F)c1nc(-c2ccc(C(F)(F)F)cc2)c(Br)o1 (stereo not shown) [Compound 134, 2-(5-bromo-4-(4-(trifluoromethyl)phenyl)oxazol-2-yl)-2-(3-carbamoyl-2,4-difluorophenoxy)ethyl (2-(dimethylamino)ethyl)carbamate] | 1 to 16 (≈ 1.61 to 25.8 µM) |
| NC(=O)c1c(F)ccc(OC(CCCO)c2nc(-c3ccc(C(F)(F)F)cc3)c(Br)o2)c1F (stereo not shown) [Compound 90, 3-(1-(5-bromo-4-(4-(trifluoromethyl)phenyl)oxazol-2-yl)-4-hydroxybutoxy)-2,6-difluorobenzamide] | 0.25 to 1 (≈ 0.467 to 1.87 µM) |
| COc1cccc(-c2nc(C(CO)Oc3ccc(F)c(C(N)=O)c3F)oc2Br)c1 (stereo not shown) [Compound 117, 3-(1-(5-bromo-4-(3-methoxyphenyl)oxazol-2-yl)-2-hydroxyethoxy)-2,6-difluorobenzamide] | > 16 |
| CC(=O)OCC(Oc1cccc(C(N)=O)c1F)c1nc(-c2ccc(C(F)(F)F)cc2)c(Br)o1 (stereo not shown) [Compound 158, 2-(5-bromo-4-(4-(trifluoromethyl)phenyl)oxazol-2-yl)-2-(3-carbamoyl-2-fluorophenoxy)ethyl acetate] | < 0.25 |
| NC(=O)c1c(F)ccc(OC(CO)c2csc(-c3ccc(Cl)cc3)n2)c1F (stereo not shown) [Compound 258, 3-(1-(2-(4-chlorophenyl)thiazol-4-yl)-2-hydroxyethoxy)-2,6-difluorobenzamide] | 1 to 16 (≈ 2.43 to 38.9 µM) |
| COc1cccc(-c2nc(C(COC(C)=O)Oc3ccc(F)c(C(N)=O)c3F)oc2Br)c1 (stereo not shown) [Compound 108, 2-(5-bromo-4-(3-methoxyphenyl)oxazol-2-yl)-2-(3-carbamoyl-2,4-difluorophenoxy)ethyl acetate] | > 16 |

| SMILES | MIC [µg/mL] |
| --- | --- |
| CC(=O)OCC(COC(C)=O)CC(Oc1ccc(F)c(C(N)=O)c1F)c1nc(-c2ccc(C(F)(F)F)cc2)c(Br)o1 (stereo not shown) [Compound 133, 2-(2-(5-bromo-4-(4-(trifluoromethyl)phenyl)oxazol-2-yl)-2-(3-carbamoyl-2,4-difluorophenoxy)ethyl)propane-1,3-diyl diacetate] | > 16 |
| CC(Oc1ccc(F)c(C(N)=O)c1F)c1nc(-c2cnc(C(F)(F)F)nc2)c(Cl)o1 (stereo not shown) [Compound 55] | 1 to 16 (≈ 2.23 to 35.7 µM) |
| COc1ccc(-c2coc(C(CO)Oc3ccc(F)c(C(N)=O)c3F)n2)c(F)c1 (stereo not shown) [Compound 228, 2,6-difluoro-3-(1-(4-(2-fluoro-4-methoxyphenyl)oxazol-2-yl)-2-hydroxyethoxy)benzamide] | > 16 |
| Cc1nc(-c2nc(C(CO)Oc3ccc(F)c(C(N)=O)c3F)oc2Br)sc1C (stereo not shown) [Compound 240, 3-(1-(5-bromo-4-(4,5-dimethylthiazol-2-yl)oxazol-2-yl)-2-hydroxyethoxy)-2,6-difluorobenzamide] | > 16 |
| CNc1ccc(-c2coc(C(CO)Oc3ccc(F)c(C(N)=O)c3F)n2)cn1 (stereo not shown) [Compound 220, 2,6-difluoro-3-(2-hydroxy-1-(4-(6-(methylamino)pyridin-3-yl)oxazol-2-yl)ethoxy)benzamide] | > 16 |
| NC(=O)c1c(F)ccc(OC(COC(=O)NCc2ccc[n+]([O-])c2)c2nc(-c3ccc(C(F)(F)F)cc3)c(Br)o2)c1F (stereo not shown) [Compound 174, 3-((((2-(5-bromo-4-(4-(trifluoromethyl)phenyl)oxazol-2-yl)-2-(3-carbamoyl-2,4-difluorophenoxy)ethoxy)carbonyl)amino)methyl)pyridine 1-oxide] | > 16 |
| NC(=O)c1c(F)ccc(OC(CNC(=O)c2cccnc2)c2nc(-c3ccc(C(F)(F)F)cc3)c(Br)o2)c1F (stereo not shown) [Compound 295, N-(2-(5-bromo-4-(4-(trifluoromethyl)phenyl)oxazol-2-yl)-2-(3-carbamoyl-2,4-difluorophenoxy)ethyl)nicotinamide] | 0.25 to 1 (≈ 0.409 to 1.64 µM) |
| NC(=O)c1c(F)ccc(OC(C(=O)O)c2coc(-c3ccc(C(F)(F)F)cc3)n2)c1F (stereo not shown) [Compound 132, 2-(3-carbamoyl-2,4-difluorophenoxy)-2-(2-(4-(trifluoromethyl)phenyl)oxazol-4-yl)acetic acid] | > 16 |
| CN(C)C(=O)OCC(Oc1ccc(F)c(C(N)=O)c1F)c1nc(-c2ccc(C(F)(F)F)cc2)c(Br)o1 (stereo not shown) [Compound 107, 2-(5-bromo-4-(4-(trifluoromethyl)phenyl)oxazol-2-yl)-2-(3-carbamoyl-2,4-difluorophenoxy)ethyl dimethylcarbamate] | < 0.25 |
| CN(Cc1cnccn1)C(=O)OCC(Oc1ccc(F)c(C(N)=O)c1F)c1nc(-c2ccc(C(F)(F)F)cc2)c(Br)o1 (stereo not shown) [Compound 192, 2-(5-bromo-4-(4-(trifluoromethyl)phenyl)oxazol-2-yl)-2-(3-carbamoyl-2,4-difluorophenoxy)ethyl methyl(pyrazin-2-ylmethyl)carbamate] | 0.25 to 1 (≈ 0.381 to 1.52 µM) |
| COCCn1cncc1CNC(=O)OCC(Oc1ccc(F)c(C(N)=O)c1F)c1nc(-c2ccc(C(F)(F)F)cc2)c(Br)o1 (stereo not shown) [Compound 207, 2-(5-bromo-4-(4-(trifluoromethyl)phenyl)oxazol-2-yl)-2-(3-carbamoyl-2,4-difluorophenoxy)ethyl ((1-(2-methoxyethyl)-1H-imidazol-5-yl)methyl)carbamate] | 1 to 16 (≈ 1.45 to 23.2 µM) |
| COc1cnc(-c2csc(C(CO)Oc3ccc(F)c(C(N)=O)c3F)n2)cn1 (stereo not shown) [Compound 261, 2,6-difluoro-3-(2-hydroxy-1-(4-(5-methoxypyrazin-2-yl)thiazol-2-yl)ethoxy)benzamide] | 1 to 16 (≈ 2.45 to 39.2 µM) |
| NC(=O)c1c(F)ccc(O[C@H](CO)c2nc(-c3ccc(F)cc3)c(Br)o2)c1F [Compound 279B, (R)-3-(1-(5-bromo-4-(4-fluorophenyl)oxazol-2-yl)-2-hydroxyethoxy)-2,6-difluorobenzamide] | 0.25 to 1 (≈ 0.547 to 2.19 µM) |
| NC(=O)c1c(F)ccc(O[C@H](CO)c2nc(-c3ccc4c(c3)CCO4)c(Br)o2)c1F [Compound 253B, (R)-3-(1-(5-bromo-4-(2,3-dihydrobenzofuran-5-yl)oxazol-2-yl)-2-hydroxyethoxy)-2,6-difluorobenzamide] | 1 to 16 (≈ 2.08 to 33.2 µM) |
| NC(=O)c1c(F)ccc(OC(COCCN2CCOCC2)c2nc(-c3ccc(C(F)(F)F)cc3)c(Br)o2)c1F (stereo not shown) [Compound 168, 3-(1-(5-bromo-4-(4-(trifluoromethyl)phenyl)oxazol-2-yl)-2-(2-morpholinoethoxy)ethoxy)-2,6-difluorobenzamide] | 1 to 16 (≈ 1.61 to 25.8 µM) |
| CCCc1oc(C(CCC)Oc2ccc(F)c(C(N)=O)c2F)nc1-c1ccc(Cl)cc1 (stereo not shown) [Compound 30] | 1 to 16 (≈ 2.23 to 35.6 µM) |
| NC(=O)c1c(F)ccc(OC(CO)c2nc(-c3cccc(O)c3)c(Br)o2)c1F (stereo not shown) [Compound 118, 3-(1-(5-bromo-4-(3-hydroxyphenyl)oxazol-2-yl)-2-hydroxyethoxy)-2,6-difluorobenzamide] | > 16 |
| CCCCc1oc(C(CO)Oc2ccc(F)c(C(N)=O)c2F)nc1-c1ccc(C(F)(F)F)cc1 (stereo not shown) [Compound 277, 3-(1-(5-butyl-4-(4-(trifluoromethyl)phenyl)oxazol-2-yl)-2-hydroxyethoxy)-2,6-difluorobenzamide] | 1 to 16 (≈ 2.06 to 33 µM) |
